Experimental data: patent US9364438B2, “Process for producing solid particles” (Takeda Pharmaceutical Company Limited, priority 2012, dated 2016)

Experiment: Microscopic observation of precipitated resatorvid crystals (poor solvent crystallization)
Type: physicochemical
Conditions: microscope
Experimental: Resatorvid (10 mg) was dissolved in methanol (0.5 mL) to prepare a methanol solution of resatorvid. The solution was added dropwise to water (5 mL) for injection with stirring at 600 rpm to allow precipitation of resatorvid crystal. The crystal was recovered, and vacuum dried at 50° C. for 24 hr. The obtained crystal was observed under a microscope.
In the same manner as in Comparative Example 1 except that water for injection containing nanobubbles produced under the above-mentioned conditions was used instead of water for injection, resatorvid crystal was obtained. The obtained crystal was observed under a microscope.
Resatorvid (10 mg) was dissolved in methanol (0.5 mL) to prepare a methanol solution of resatorvid. Polysorbate 80 (2 mg) was dissolved in water for injection (10 mL) to prepare aqueous polysorbate 80 solution. The aforementioned resatorvid solution (0.5 mL) was added dropwise to water (10 mL) for injection with stirring at 600 rpm to allow precipitation of resatorvid crystal. The crystal was recovered, and vacuum dried at 50° C. for 24 hr. The obtained crystal was observed under a microscope.
In the same manner as in Comparative Example 2 except that water for injection containing nanobubbles produced under the above-mentioned conditions was used instead of water for injection, resatorvid crystal was obtained. The obtained crystal was observed under a microscope.

Row | average maximum length of each crystal particle (poor solvent nanobubble water, compared with conventional water for injection (Comparative Example 1), FIG. 1 vs FIG. 2) | average maximum length of each crystal particle (poor solvent aqueous polysorbate 80 nanobubble solution, compared with conventional aqueous polysorbate 80 solution (Comparative Example 2)) | Structure (SMILES)
1 | smaller average maximum length |  | CCOC(=O)C1=CCCC[C@H]1S(=O)(=O)Nc1ccc(F)cc1Cl [Example 1, ethyl (6R)-6-[(2-chloro-4-fluoroanilino)sulfonyl]-1-cyclohexene-1-carboxylate]
2 |  | smaller average maximum length | CCOC(=O)C1=CCCC[C@H]1S(=O)(=O)Nc1ccc(F)cc1Cl [Example 2, ethyl (6R)-6-[(2-chloro-4-fluoroanilino)sulfonyl]-1-cyclohexene-1-carboxylate]
